Target: α-glucosidase (E.C.3.2.1.20) (Saccharomyces cerevisiae, UniProt P53341)
Experiment: α-glucosidase inhibition assay
Format: biochemical
Details: IC50 could not be determined

α-glucosidase (E.C.3.2.1.20), sequence (P53341 whole entry): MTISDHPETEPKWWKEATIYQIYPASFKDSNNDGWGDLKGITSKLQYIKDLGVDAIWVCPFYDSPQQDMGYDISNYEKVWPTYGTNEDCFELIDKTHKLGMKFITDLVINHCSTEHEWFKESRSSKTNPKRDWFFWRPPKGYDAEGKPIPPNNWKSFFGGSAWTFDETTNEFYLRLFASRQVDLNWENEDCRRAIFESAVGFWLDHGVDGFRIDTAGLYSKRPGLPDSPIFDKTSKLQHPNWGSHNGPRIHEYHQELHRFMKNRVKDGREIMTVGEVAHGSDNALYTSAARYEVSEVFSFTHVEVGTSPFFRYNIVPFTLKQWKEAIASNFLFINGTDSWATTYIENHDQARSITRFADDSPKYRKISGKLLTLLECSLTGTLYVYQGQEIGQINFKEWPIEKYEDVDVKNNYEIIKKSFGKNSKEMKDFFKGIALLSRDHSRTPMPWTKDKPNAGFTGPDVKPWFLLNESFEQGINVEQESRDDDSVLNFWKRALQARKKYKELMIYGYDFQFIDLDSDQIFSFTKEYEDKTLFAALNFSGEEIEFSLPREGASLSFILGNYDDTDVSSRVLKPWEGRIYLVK

Row | Compound | α-glucosidase inhibitory activity (in words)
1 | O=C(NN=C1C(=O)N(CCOc2ccc(F)cc2)c2ccccc21)c1cccnc1 [1j, N′-(1-(2-(4-Fluorophenoxy)ethyl)-2-oxoindolin-3-ylidene)nicotinohydrazide] | complete loss of inhibitory activity
2 | O=C(NN=C1C(=O)N(CCOc2ccc(F)cc2)c2ccccc21)c1ccncc1 [1k, N′-(1-(2-(4-Fluorophenoxy)ethyl)-2-oxoindolin-3-ylidene)isonicotinohydrazide] | loss of inhibitory activity

Same assay, conditions: read-out: Percent inhibition (0.5 mM)

Row | Compound | inhibition at 500 µM
3 | O=C(NN=C1C(=O)N(CCOc2ccccc2)c2ccccc21)c1cccnc1 [1a, N′-(2-Oxo-1-(2-phenoxyethyl)indolin-3-ylidene)nicotinohydrazide] | 75.6%
4 | O=C(NN=C1C(=O)N(CCOc2ccccc2)c2ccccc21)c1ccncc1 [1b, N′-(2-Oxo-1-(2-phenoxyethyl)indolin-3-ylidene)isonicotinohydrazide] | 94.1%
5 | O=C(NN=C1C(=O)N(CCOc2ccccc2)c2ccccc21)c1ccc(Br)cc1 [1c, 4-Bromo-N′-(2-oxo-1-(2-phenoxyethyl)indolin-3-ylidene)benzohydrazide] | 90.6%
6 | O=C(NN=C1C(=O)N(CCOc2ccc(Cl)cc2)c2ccccc21)c1cccnc1 [1d, N′-(1-(2-(4-Chlorophenoxy)ethyl)-2-oxoindolin-3-ylidene)nicotinohydrazide] | 92.9%
7 | O=C(NN=C1C(=O)N(CCOc2ccc(Cl)cc2)c2ccccc21)c1ccncc1 [1e, N′-(1-(2-(4-Chlorophenoxy)ethyl)-2-oxoindolin-3ylidene)isonicotinohydrazide] | 94.7%
8 | O=C(NN=C1C(=O)N(CCOc2ccc(Cl)cc2)c2ccccc21)c1ccc(Br)cc1 [1f, 4-Bromo-N′-(1-(2-(4-chlorophenoxy)ethyl)-2-oxoindolin3ylidene)benzohydrazide] | 94.5%
9 | O=C(NN=C1C(=O)N(CCOc2ccc(Br)cc2)c2ccccc21)c1cccnc1 [1g, N′-(1-(2-(4-Bromophenoxy)ethyl)-2-oxoindolin-3-ylidene)nicotinohydrazide] | 92.1%
10 | O=C(NN=C1C(=O)N(CCOc2ccc(Br)cc2)c2ccccc21)c1ccncc1 [1h, N′-(1-(2-(4-Bromophenoxy)ethyl)-2-oxoindolin-3-ylidene)isonicotinohydrazide] | 89.9%

The next lines start with the values.

Row | inhibition at 500 µM | Compound
11 | 94.9% | O=C(NN=C1C(=O)N(CCOc2ccc(Br)cc2)c2ccccc21)c1ccc(Br)cc1 [1i, 4-Bromo-N′-(1-(2-(4-bromophenoxy)ethyl)-2-oxoindolin-3-ylidene)benzohydrazide]
12 | 36% | O=C(NN=C1C(=O)N(CCOc2ccc(F)cc2)c2ccccc21)c1cccnc1 [1j, N′-(1-(2-(4-Fluorophenoxy)ethyl)-2-oxoindolin-3-ylidene)nicotinohydrazide]
13 | 39.3% | O=C(NN=C1C(=O)N(CCOc2ccc(F)cc2)c2ccccc21)c1ccncc1 [1k, N′-(1-(2-(4-Fluorophenoxy)ethyl)-2-oxoindolin-3-ylidene)isonicotinohydrazide]
14 | 93.1% | O=C(NN=C1C(=O)N(CCOc2ccc(F)cc2)c2ccccc21)c1ccc(Br)cc1 [1l, 4-Bromo-N′-(1-(2-(4-fluorophenoxy)ethyl)-2-oxoindolin-3-ylidene)benzohydrazide]
